The values below come from ChEMBL document CHEMBL3792311, “In vitro and in vivo activity of ML302F: a thioenolate inhibitor of VIM-subfamily metallo -lactamases” (Medchemcomm, 2016).

Format in all cases: functional
Test [1] deals with Klebsiella oxytoca. The test is described as follows: Antibacterial activity against VIM4 carbapenemase producing multidrug-resistant Klebsiella oxytoca 126 clinical isolate by broth microtiter dilution method.
Test [2] deals with Klebsiella pneumoniae. Description: Antibacterial activity against VIM4 carbapenemase producing multidrug-resistant Klebsiella pneumoniae 120 clinical isolate infected in Galleria mellonella larvae assessed as survival rate at 0.6 mg/kg measured at 96 hrs. The settings on record: Klebsiella pneumoniae, 120, 96 h.
Test [3] relates to Pseudomonas aeruginosa. Description: Antibacterial activity against VIM2 carbapenemase producing multidrug-resistant Pseudomonas aeruginosa GR64 clinical isolate by broth microtiter dilution method.
Test [4] relates to Pseudomonas aeruginosa. Description: Antibacterial activity against VIM2 carbapenemase producing multidrug-resistant Pseudomonas aeruginosa 11 clinical isolate by broth microtiter dilution method.
Test [5] relates to Pseudomonas aeruginosa. The test is described as follows: Antibacterial activity against VIM2 carbapenemase producing multidrug-resistant Pseudomonas aeruginosa 50 clinical isolate by broth microtiter dilution method.
The subject of test [6] is Pseudomonas aeruginosa. The test is described as follows: Antibacterial activity against VIM2 carbapenemase producing multidrug-resistant Pseudomonas aeruginosa 9 clinical isolate by broth microtiter dilution method.
Test [7] deals with Pseudomonas aeruginosa. The test is described as follows: Antibacterial activity against VIM2 carbapenemase producing multidrug-resistant Pseudomonas aeruginosa GR62 clinical isolate by broth microtiter dilution method.
In test [8] the test system is Pseudomonas aeruginosa. Description: Antibacterial activity against VIM2 carbapenemase producing multidrug-resistant Pseudomonas aeruginosa GR57 clinical isolate infected in Galleria mellonella larvae assessed as survival rate at 0.6 mg/kg measured at 96 hrs. The settings on record: GR57, 96 h.
Test [9] has as its system Klebsiella pneumoniae. Description: Antibacterial activity against VIM1 carbapenemase producing multidrug-resistant Klebsiella pneumoniae GR54 clinical isolate by broth microtiter dilution method.
In test [10] the test system is Klebsiella pneumoniae. Description: Antibacterial activity against VIM4 carbapenemase producing multidrug-resistant Klebsiella pneumoniae 128 clinical isolate by broth microtiter dilution method.
Test [11] has as its system Pseudomonas aeruginosa. The test is described as follows: Antibacterial activity against VIM2 carbapenemase producing multidrug-resistant Pseudomonas aeruginosa GR57 clinical isolate by broth microtiter dilution method.
For test [12], the system named is Providencia stuartii. Description: Antibacterial activity against VIM1 carbapenemase producing multidrug-resistant Providencia stuartii 67 clinical isolate by broth microtiter dilution method.
Test [13] has as its system Pseudomonas aeruginosa. Description: Antibacterial activity against VIM2 carbapenemase producing multidrug-resistant Pseudomonas aeruginosa 8 clinical isolate by broth microtiter dilution method.
For test [14], the system named is Pseudomonas aeruginosa. Description: Antibacterial activity against VIM2 carbapenemase producing multidrug-resistant Pseudomonas aeruginosa 6 clinical isolate by broth microtiter dilution method.
Test [15] concerns Klebsiella pneumoniae. The test is described as follows: Antibacterial activity against VIM4 carbapenemase producing multidrug-resistant Klebsiella pneumoniae 101 clinical isolate by broth microtiter dilution method.
Test [16] deals with Providencia stuartii. The test is described as follows: Antibacterial activity against VIM1 carbapenemase producing multidrug-resistant Providencia stuartii 70 clinical isolate by broth microtiter dilution method.
In test [17] the test system is Pseudomonas aeruginosa. Description: Antibacterial activity against VIM2 carbapenemase producing multidrug-resistant Pseudomonas aeruginosa 13 clinical isolate by broth microtiter dilution method.
Test [18] has as its system Pseudomonas aeruginosa. Description: Antibacterial activity against VIM2 carbapenemase producing multidrug-resistant Pseudomonas aeruginosa 12 clinical isolate by broth microtiter dilution method.
For test [19], the system named is Escherichia coli. Description: Antibacterial activity against VIM4 carbapenemase producing multidrug-resistant Escherichia coli 98 clinical isolate infected in Galleria mellonella larvae assessed as survival rate at 0.6 mg/kg measured at 96 hrs. To be noted: Escherichia coli, 98, 96 h.
Test [20] concerns Pseudomonas aeruginosa. The test is described as follows: Antibacterial activity against VIM2 carbapenemase producing multidrug-resistant Pseudomonas aeruginosa GR58 clinical isolate by broth microtiter dilution method.
The subject of test [21] is Klebsiella pneumoniae. The test is described as follows: Antibacterial activity against VIM1 carbapenemase producing multidrug-resistant Klebsiella pneumoniae 177 clinical isolate by broth microtiter dilution method.
For test [22], the system named is Pseudomonas aeruginosa. The test is described as follows: Antibacterial activity against VIM2 carbapenemase producing multidrug-resistant Pseudomonas aeruginosa 47 clinical isolate by broth microtiter dilution method.
In test [23] the test system is Klebsiella oxytoca. The test is described as follows: Antibacterial activity against VIM4 carbapenemase producing multidrug-resistant Klebsiella oxytoca 95 clinical isolate by broth microtiter dilution method.
In test [24] the test system is Enterobacter cloacae. Description: Antibacterial activity against VIM4 carbapenemase producing multidrug-resistant Enterobacter cloacae 102 clinical isolate by broth microtiter dilution method.

In brackets after ≈: the same amount, converted by molar mass.

With `C[C@@H](O)[C@H]1C(=O)N2C(C(=O)O)=C(S[C@@H]3CN[C@H](C(=O)N(C)C)C3)[C@H](C)[C@H]12` [MEROPENEM], the MIC came out at 32 µg/mL (≈ 83.4 µM) in test [1]; 32 µg/mL (≈ 83.4 µM) in [3]; 32 µg/mL (≈ 83.4 µM) in test [4]; 32 µg/mL (≈ 83.4 µM) in test [5]; 128 µg/mL (≈ 334 µM) in test [6]; 32 µg/mL (≈ 83.4 µM) in test [7]. Further, the MIC in [9] is 128 µg/mL (≈ 334 µM); in test [10], 4 µg/mL (≈ 10.4 µM); in [11], 32 µg/mL (≈ 83.4 µM); in test [12] it was 8 µg/mL (≈ 20.9 µM); in test [13], 128 µg/mL (≈ 334 µM); in [14], 128 µg/mL (≈ 334 µM). Further, the minimum inhibitory concentration (MIC) in test [15] is 32 µg/mL (≈ 83.4 µM); in [16] it was 8 µg/mL (≈ 20.9 µM); in test [17], 32 µg/mL (≈ 83.4 µM); in [18], 128 µg/mL (≈ 334 µM); in test [20], 32 µg/mL (≈ 83.4 µM); in test [21], 1 µg/mL (≈ 2.61 µM). Further, the minimal inhibitory concentration (MIC) in test [22], in test [23] and in test [24] was 32 µg/mL (≈ 83.4 µM) each time. Also, the survival at 0.6 mg/kg in [2] was found to be 69%; in test [8], 23%; in test [19], 44%.
